# Measurements taken from US20260070927A1, “INDAZOLE MACROCYCLES FOR THE TREATMENT OF AUTOIMMUNE DISEASE” (Hoffmann-La Roche Inc., priority 2022, published 2026).
# How the values were obtained:
# [1] = test system: STING (IFN-β in hPBMC); experiment: hPBMC cytokine functional assay (IFN-β decrease after Baculovirus stimulation); format: cell-based; details: Homo sapiens, Baculovirus MOI 40, 24 hours, read-out: hPBMC_IC50
# Procedure: The inhibition of STING by compounds could be measured by the decrease of IFN-β in hPBMC, which is stimulated by a double stranded DNA virus Baculoviurs (Purchased from Genescript, pCMV-Dest Vector virus generation P2 BV stock virus, Sf-900 II medium with 5% FBS, Lot C9835DK230-2/P4DL001). Frozen hPBMC cells (purchased from Stemcell Technologies, cat number is 70025, Lot 191070803C) were thawed at 37° C. water bath, then cells were re-suspended in 50 ml tube using 20 ml Cell culture medium, and then centrifuged for 5 min at 2000 rpm before the supernatant was removed carefully. The cells were re-suspended in culture medium (RPMI-1640 with 1.5 g/L NaHCO3, 4.5 g/L glucose, 10 mM HEPES and 1 mM Na-pyruvate, 10% HI-FBS); 65 μL of the cell suspension was dispensed into 384 well plate (70K cells/well) by Multidrop Combi with at least 3 hours incubation at 37° C., 5% CO2 cell incubator.
# Then 4 μL of compound solution per well (final 0.5% DMSO) was transferred by Agilent Bravo followed by infection with 11 μL of Baculovirus at a final MOI of 40. The level of IFN-β secreted in the supernatant of hPBMC was determined after 24 hours of incubation at 37° C. cell incubator by human IFN-β HTRF assay (Cisbio, cat: 62HIFNBPEH) following the manufacture's instruction. CellTiter-Glo kit (Promega, cat: G7573) was applied for the cell viability evaluation using Envision.
# [2] = molecular target: human stimulator of interferon genes (STING) (139-379) (Homo sapiens (Human), UniProt Q86WV6); experiment: Microliter plate-based TR-FRET competition-binding assay for binders of STING; details: Alexa488 probe, read-out: FRET_IC50
# Procedure: This is the competition-binding assay to test the compounds' potency to the C-terminal Domain (CTD) and ligand-binding domain of human stimulator of interferon genes (STING). STING (139-379, Q86WV6, http://www.uniprot.org/uniprot) recombinant protein (in 20 mM Tris, 150 mM NaCl, pH 8.0, and expression in Escherichia coli (E. coli) BL21 (DE3)) with a C-terminal flag-tag was employed for the assay. When Alexa-488 labeled active site probe (refer to patent WO2017/175156 A1) bounds to STING (139-379), it accepts the 485 nm emission from Tb-M2-Flag-STING and results in an increase in fluorescence at 520 nm. Compounds that compete for the probe-binding site will reduce 520 nm signal. The assay was run in proxiplate-384 plus (PerkinElmer, cat: 60150300) containing of 2.5 nM STING, 2.5 nM M2-Tb (Cisbio, 61FG2TLA, Lot: 17 A) and 250 nM Alexa488 probe. Plates were centrifuged for 1 min at 1000 rpm, incubated for 30 min at room temperature, and then measured the dual fluorescence emission at 520 nm/485 nM following 320 nm laser excitation on an Envision plate reader (Perkin-Elmer). The compounds' effect on the STING binding is detected by measuring ratiometric fluorescence from time-resolved FRET. The percentage of inhibition of at each compound concentration is calculated on the basis of their changes of TR-FRET efficiency relative to the change of TR-FRET caused by positive control 2′3′cGAMP (Sigma, cat: SML1229).
# Sequence of human stimulator of interferon genes (STING) (139-379) (Q86WV6 139-379): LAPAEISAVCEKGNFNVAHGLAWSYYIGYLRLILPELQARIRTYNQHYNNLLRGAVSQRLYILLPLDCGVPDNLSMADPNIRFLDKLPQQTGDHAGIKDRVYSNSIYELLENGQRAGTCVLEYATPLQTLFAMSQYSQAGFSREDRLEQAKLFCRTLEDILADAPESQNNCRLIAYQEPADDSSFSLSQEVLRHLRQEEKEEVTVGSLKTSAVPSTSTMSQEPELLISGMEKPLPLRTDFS
structure (smiles),measurement,setting,value
"Cn1nc2cccc3c2c1CCCN(CCCn1ccnc1)C(=O)[C@@H]1C[C@@H](CN1c1ncnc2c1cnn2-c1ccc(F)cc1F)Oc1cccc-3c1 [Example 38, (8S,11S)-10-[1-(2,4-difluorophenyl)pyrazolo[3,4-d]pyrimidin-4-yl]-13-(3-imidazol-1-ylpropyl)-18-methyl-7-oxa-10,13,18,19-tetrazapentacyclo[15.6.1.1^2,6.1^8,11.0^20,24]hexacosa-1(23),2(26),3,5,17(24),19,21-heptaen-12-one]",IC50,[1],465 nM
same,IC50,[2],0.9 nM
"Cn1nc2cccc3c2c1CCCN(CCN1CCOCC1)C(=O)[C@@H]1C[C@@H](CN1c1ncnc2c1cnn2-c1ccc(F)cc1F)Oc1cccc-3c1 [Example 23, (8S,11S)-10-[1-(2,4-difluorophenyl)pyrazolo[3,4-d]pyrimidin-4-yl]-18-methyl-13-(2-morpholinoethyl)-7-oxa-10,13,18,19-tetrazapentacyclo[15.6.1.1^2,6.1^8,11.0^20,24]hexacosa-1(23),2(26),3,5,17(24),19,21-heptaen-12-one]",IC50,[1],279 nM
same,IC50,[2],1.6 nM
"Cn1nc2cccc3c2c1CCCN(Cc1cscn1)C(=O)[C@@H]1C[C@@H](CN1c1ncnc2c1cnn2-c1ccc(F)cc1F)Oc1cccc-3c1 [Example 17, (8S,11S)-10-[1-(2,4-difluorophenyl)pyrazolo[3,4-d]pyrimidin-4-yl]-18-methyl-13-(thiazol-4-ylmethyl)-7-oxa-10,13,18,19-tetrazapentacyclo[15.6.1.1^2,6.1^8,11.0^20,24]hexacosa-1(23),2(26),3,5,17(24),19,21-heptaen-12-one]",IC50,[2],2.2 nM
"COCCCN1CCCc2c3c(cccc3nn2C)-c2cccc(c2)O[C@H]2C[C@@H](C1=O)N(c1ncnc3c1cnn3-c1ccc(F)cc1F)C2 [Example 27, (8S,11S)-10-[1-(2,4-difluorophenyl)pyrazolo[3,4-d]pyrimidin-4-yl]-13-(3-methoxypropyl)-18-methyl-7-oxa-10,13,18,19-tetrazapentacyclo[15.6.1.1^2,6.1^8,11.0^20,24]hexacosa-1(23),2(26),3,5,17(24),19,21-heptaen-12-one]",IC50,[1],23 nM
same,IC50,[2],14.2 nM
"Cn1nc2cccc3c2c1CCCNC(=O)[C@@H]1C[C@@H](CN1c1ncnc2c1cnn2-c1ccc(F)cc1F)Oc1cccc-3c1 [Example 1, (8S,11S)-10-[1-(2,4-difluorophenyl)pyrazolo[3,4-d]pyrimidin-4-yl]-18-methyl-7-oxa-10,13,18,19-tetrazapentacyclo[15.6.1.1^2,6.1^8,11.0^20,24]hexacosa-1(23),2(26),3,5,17(24),19,21-heptaen-12-one]",IC50,[1],486 nM
same,IC50,[2],0.8 nM
"COCCOCCCN1CCCc2c3c(cccc3nn2C)-c2cccc(c2)O[C@H]2C[C@@H](C1=O)N(c1ncnc3c1cnn3-c1ccc(F)cc1F)C2 [Example 39, (8S,11S)-10-[1-(2,4-difluorophenyl)pyrazolo[3,4-d]pyrimidin-4-yl]-13-[3-(2-methoxyethoxy)propyl]-18-methyl-7-oxa-10,13,18,19-tetrazapentacyclo[15.6.1.1^2,6.1^8,11.0^20,24]hexacosa-1(23),2(26),3,5,17(24),19,21-heptaen-12-one]",IC50,[2],5.5 nM
"Cn1nc2cccc3c2c1CCCN(CCCn1cncn1)C(=O)[C@@H]1C[C@@H](CN1c1ncnc2c1cnn2-c1ccc(F)cc1F)Oc1cccc-3c1 [Example 37, (8S,11S)-10-[1-(2,4-difluorophenyl)pyrazolo[3,4-d]pyrimidin-4-yl]-18-methyl-13-[3-(1,2,4-triazol-1-yl)propyl]-7-oxa-10,13,18,19-tetrazapentacyclo[15.6.1.1^2,6.1^8,11.0^20,24]hexacosa-1(23),2(26),3,5,17(24),19,21-heptaen-12-one]",IC50,[2],1.5 nM
